These results are taken from patent publication US9914724B2, “C-aryl glycosid derivatives, pharmaceutical composition, preparation process and uses thereof” (SHANGHAI DE NOVO PHARMATECH CO. LTD., priority 2014, dated 2018).

SMILES strings stand for the structures. pIC50: −log10 of the molar value.

Assay [1] deals with T1, SGLT-2 (Homo sapiens, UniProt P31639).
T1 sequence (P31639 1-672): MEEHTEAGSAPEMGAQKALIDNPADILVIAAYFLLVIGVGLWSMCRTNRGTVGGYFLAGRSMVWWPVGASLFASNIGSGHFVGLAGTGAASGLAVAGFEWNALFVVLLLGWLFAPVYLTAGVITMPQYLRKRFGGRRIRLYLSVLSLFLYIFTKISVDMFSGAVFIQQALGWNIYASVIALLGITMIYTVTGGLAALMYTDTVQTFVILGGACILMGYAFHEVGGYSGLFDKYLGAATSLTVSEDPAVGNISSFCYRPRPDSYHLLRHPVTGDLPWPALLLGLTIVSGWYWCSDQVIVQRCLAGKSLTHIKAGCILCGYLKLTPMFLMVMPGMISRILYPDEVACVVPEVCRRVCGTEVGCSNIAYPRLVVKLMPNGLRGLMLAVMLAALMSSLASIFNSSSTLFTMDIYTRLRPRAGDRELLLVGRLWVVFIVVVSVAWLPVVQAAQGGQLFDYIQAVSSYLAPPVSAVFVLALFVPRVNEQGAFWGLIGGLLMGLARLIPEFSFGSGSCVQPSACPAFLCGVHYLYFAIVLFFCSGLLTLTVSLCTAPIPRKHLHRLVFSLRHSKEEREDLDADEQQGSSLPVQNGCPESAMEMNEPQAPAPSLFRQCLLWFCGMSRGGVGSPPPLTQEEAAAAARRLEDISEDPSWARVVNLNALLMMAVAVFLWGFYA
The assay is described as follows: [14C]-AMG absorption in stable SGLT2 expressing Flp-in CHO cells (SGLT-2 activity screening assay). Type of assay: cell-based. Conditions: 14C-AMG uptake, 37° C. 1 h, 1% DMSO. In a few lines:
(§1)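 Stable Flp-in CHO cells expressing human SGLT1 or SGLT2, plated overnight, were given [14C]-AMG (2.5 μCi/mL) in Na+ buffer pH 7.4 with compound at 1% DMSO, 1 h at 37 °C. Uptake stopped with ice-cold phlorizin (0.5 mM) buffer; lysate radioactivity counted, IC50 calculated.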

Assay [2] has as its system C57/BL6 mice. Briefly: Urinary glucose excretion test in C57/BL6 mice. Type of assay: in vivo. Conditions: male C57/BL6 mice, 10 mg/Kg oral; for activity in urinary glucose excretion compared with compound A (Empagliflozin): 24 h urine, statement on Table 2; for Glucose (excreted urine glucose): then 5 g/Kg glucose, total urine in 24 h, mean of 6 mice. The procedure: Example 2: Urinary Glucose Excretion Test in C57/BL6 Mice
Adult male C57/BL6 mice with body weight over 20 g (Shanghai LSK Laboratory Animal Ltd) were orally dosed with test compound I (10 mg/Kg) after which the animals were fed with 5 g/Kg glucose. The animals were housed in metabolic cages to collect total urine in 24 h. The cage was washed with 5 mL of normal saline. Water and food were provided to the mice ad libitum during the 24 h period. The urine samples were immediately frozen after collection, and the glucose levels were then determined. The total amount of excreted urine glucose was calculated based on total amount of urine, and then converted to amount of excreted glucose (mg) per 200 mg body weight in 24 h based on mouse body weight. The result is shown in Table 2 (mean values of 6 mice).

Assay [3] concerns the target T2, SGLT-1 (Homo sapiens, UniProt P13866).
T2 sequence (P13866 1-664): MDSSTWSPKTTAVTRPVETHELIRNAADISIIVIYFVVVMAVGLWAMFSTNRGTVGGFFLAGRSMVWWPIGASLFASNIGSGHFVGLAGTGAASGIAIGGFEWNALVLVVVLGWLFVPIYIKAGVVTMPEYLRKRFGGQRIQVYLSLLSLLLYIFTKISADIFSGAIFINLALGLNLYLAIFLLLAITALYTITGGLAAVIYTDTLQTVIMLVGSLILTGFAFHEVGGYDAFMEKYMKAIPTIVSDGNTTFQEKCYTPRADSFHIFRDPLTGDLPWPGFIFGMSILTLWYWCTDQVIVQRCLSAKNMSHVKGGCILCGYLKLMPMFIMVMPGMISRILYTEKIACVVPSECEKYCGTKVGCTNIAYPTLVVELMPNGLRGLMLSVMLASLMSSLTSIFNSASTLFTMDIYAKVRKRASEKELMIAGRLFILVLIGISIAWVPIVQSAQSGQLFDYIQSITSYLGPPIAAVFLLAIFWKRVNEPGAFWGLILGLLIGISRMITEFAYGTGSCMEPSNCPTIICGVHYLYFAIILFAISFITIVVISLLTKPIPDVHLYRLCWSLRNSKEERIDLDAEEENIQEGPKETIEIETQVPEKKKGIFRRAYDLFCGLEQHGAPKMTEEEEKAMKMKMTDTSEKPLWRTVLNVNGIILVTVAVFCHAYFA
The assay is described as follows: [14C]-AMG absorption in stable SGLT1 expressing Flp-in CHO cells (SGLT-1 activity screening assay). Type of assay: cell-based. The conditions noted are these: 14C-AMG uptake, 37° C. 1 h, 1% DMSO. The essentials:
as §1

The pIC50 is the negative decadic logarithm of the IC50, by convention in mol/L. The low end stands for a high IC50, the high end for a low IC50. `OC[C@H]1O[C@@H](c2ccc(Cl)c(Cc3ccc(OCc4cc5ccccc5o4)cc3)c2)[C@H](O)[C@@H](O)[C@@H]1O` [Compound I-1, (2S,3R,4R,5S,6R)-2-(3-(4-(benzofuran-2-ylmethoxy)benzyl)-4-chlorophenyl)-6-(hydroxymethyl)tetrahydro-2H-pyran-3,4,5-triol]: in assay [1], the pIC50 was 8.15. Besides, in assay [2], the “activity in urinary glucose excretion compared with compound A (Empagliflozin)” value is listed as “significantly more active than compound A” and the “Glucose (excreted urine glucose)” value is 1646.9 mg/200 mg body weight/24 h.

Compound `OC[C@H]1O[C@@H](c2ccc(Cl)c(Cc3ccc(OCC4Cc5ccccc5O4)cc3)c2)[C@H](O)[C@@H](O)[C@@H]1O` (stereo partly drawn) [Compound I-22, (2S,3R,4R,5S,6R)-2-(4-chloro-3-(4-((2,3-dihydrobenzofuran-2-yl)methoxy)benzyl)phenyl)-6-(hydroxymethyl)tetrahydro-2H-pyran-3,4,5-triol] had a pIC50 in assay [1] of 8.39. In assay [3], this compound showed a pIC50 of 5.68. Also, in assay [2], the “activity in urinary glucose excretion compared with compound A (Empagliflozin)” value was “significantly more active than compound A” and the “Glucose (excreted urine glucose)” value is given as 3106.6 mg/200 mg body weight/24 h.

Consider `OC[C@H]1O[C@@H](c2ccc(Cl)c(Cc3ccc(O[C@H]4CCOC4)cc3)c2)[C@H](O)[C@@H](O)[C@@H]1O` [A, Empagliflozin, reference compound], for which the negative logarithm of the IC50 (pIC50) in assay [1] was 8.18. The “Glucose (excreted urine glucose)” value in assay [2] was 1536.5 mg/200 mg body weight/24 h.

For the compound `OC[C@H]1O[C@@H](c2ccc(Cl)c(Cc3ccc(OCC4OCc5ccccc54)cc3)c2)[C@H](O)[C@@H](O)[C@@H]1O` (stereo partly drawn) [Compound I-36, (2S,3R,4R,5S,6R)-2-(4-chloro-3-(4-((1,3-dihydroisobenzofuran-1-yl)methoxy)benzyl)phenyl)-6-(hydroxymethyl)tetrahydro-2H-pyran-3,4,5-triol], the pIC50 is 9.00 in assay [1] and 6.23 in assay [3]. Also, the “Glucose (excreted urine glucose)” value in assay [2] is 1723.1 mg/200 mg body weight/24 h.
